Data: patent US20030032676A1, “Drugs for treatment of cerebral injury and methods of use thereof” (priority 2001, published 2003)

Experiments:
reversible MCAo = experiment: Infarct volume by TTC staining after reversible MCAo (two hours of MCAo, then reperfusion); format: in vivo, rat; conditions: for Mean volume of the infarct: ±SEM, p<0.05
permanent MCAo = experiment: Infarct volume by TTC staining after permanent MCAo; format: in vivo, rat; conditions: 20 mg/kg, maintained by IP injections every 12 h
EAA release = experiment: Glutamate (EAA) release measured by microdialysis during and after ischemia (rMCAo); format: in vivo, rat; conditions: 5 mg/kg i.v. before rMCAO
nitrotyrosine = experiment: Nitrotyrosine production after rMCAo, Western blot of cerebral cortex extracts; format: in vivo, rat; conditions: 5 mg/kg; 68 kDa protein at 24 hours after rMCAo; P<0.05 compared to vehicle
lipid peroxidation = experiment: Lipid peroxidation in rat synaptosomal preparation (TBA-reactive substances); format: biochemical; conditions: initiated by 2.5 μM Fe2SO4 and 500 μM ascorbic acid; rat synaptosomes
Procedure: Lipid peroxides in sedimented synaptosomal membranes were analyzed by 2-thiobarbituric acid (TBA) with the TBA-reactive substances determined spectrophotometrically (Ohkawa et al., 1979). *P<0.05

[1] = tested on: volume-regulated anion channels (VRACs); experiment: Blockade of volume-regulated anion channels in vitro
recombinant nNOS = recombinant nNOS (Homo sapiens, UniProt P29475); conditions: recombinant nNOS and calcium dependent NOS activity in brain homogenates; from Osuka et al., 2001; cited from earlier work
Sequence of recombinant nNOS (P29475 whole entry, species assumed): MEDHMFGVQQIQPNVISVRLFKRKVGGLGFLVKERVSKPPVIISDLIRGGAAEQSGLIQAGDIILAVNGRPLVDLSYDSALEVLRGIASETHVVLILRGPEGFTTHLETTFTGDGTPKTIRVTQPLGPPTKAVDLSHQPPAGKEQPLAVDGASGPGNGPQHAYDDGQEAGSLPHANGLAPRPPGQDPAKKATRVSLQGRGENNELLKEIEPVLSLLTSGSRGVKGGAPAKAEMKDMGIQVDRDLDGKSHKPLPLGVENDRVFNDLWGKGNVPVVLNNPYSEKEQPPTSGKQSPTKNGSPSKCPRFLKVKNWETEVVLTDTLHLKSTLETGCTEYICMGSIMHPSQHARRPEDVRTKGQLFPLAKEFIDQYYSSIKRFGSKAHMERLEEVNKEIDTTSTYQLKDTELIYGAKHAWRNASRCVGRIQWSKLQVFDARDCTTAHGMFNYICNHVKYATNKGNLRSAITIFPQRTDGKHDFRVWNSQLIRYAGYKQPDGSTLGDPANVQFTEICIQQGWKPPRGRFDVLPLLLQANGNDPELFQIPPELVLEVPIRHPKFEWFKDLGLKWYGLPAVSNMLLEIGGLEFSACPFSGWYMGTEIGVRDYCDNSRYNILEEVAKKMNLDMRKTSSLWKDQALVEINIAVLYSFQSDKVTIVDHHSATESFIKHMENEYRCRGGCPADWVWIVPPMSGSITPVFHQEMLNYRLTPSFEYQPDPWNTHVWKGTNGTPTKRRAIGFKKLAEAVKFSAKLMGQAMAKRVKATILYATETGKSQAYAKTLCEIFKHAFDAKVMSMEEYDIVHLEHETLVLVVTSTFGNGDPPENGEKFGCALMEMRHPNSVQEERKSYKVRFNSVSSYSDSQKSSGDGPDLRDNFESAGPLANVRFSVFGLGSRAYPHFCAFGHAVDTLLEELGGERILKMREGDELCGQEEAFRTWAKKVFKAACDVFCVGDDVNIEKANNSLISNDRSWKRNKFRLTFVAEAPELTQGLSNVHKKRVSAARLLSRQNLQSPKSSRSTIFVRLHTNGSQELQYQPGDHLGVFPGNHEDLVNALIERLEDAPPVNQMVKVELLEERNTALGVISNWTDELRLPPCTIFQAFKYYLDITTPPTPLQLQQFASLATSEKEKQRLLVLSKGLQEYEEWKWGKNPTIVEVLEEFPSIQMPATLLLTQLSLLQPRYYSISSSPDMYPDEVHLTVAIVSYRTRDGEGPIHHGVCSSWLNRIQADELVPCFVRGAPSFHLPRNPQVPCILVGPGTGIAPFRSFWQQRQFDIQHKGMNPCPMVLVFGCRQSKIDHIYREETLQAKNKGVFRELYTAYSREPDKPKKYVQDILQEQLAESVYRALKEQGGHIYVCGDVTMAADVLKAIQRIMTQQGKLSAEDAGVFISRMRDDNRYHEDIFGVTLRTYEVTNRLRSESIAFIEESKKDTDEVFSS

CCC(=C(c1ccccc1)c1ccc(OCCN(C)C)cc1)c1ccccc1 (stereo in doubt) [tamoxifen, (Z)-2-[4-(1,2-diphenyl-1-butenyl)phenoxy]-N,N-dimethylethanamine]
Infarct size (reversible MCAo; tamoxifen at two and four hours after the infarct, reperfusion): essentially identical to the mean for untreated control animals | Mean volume of the infarct (reversible MCAo; tamoxifen given 1 hour after reperfusing after two hours of MCAo, TTC staining 72 h): 33±13 mm^3 | Mean volume of the infarct (reversible MCAo; tamoxifen pretreatment, TTC staining 72 h after MCAo): 41±21 mm^3 | Infarct volume (permanent MCAo): reduces infarct volumes | Contralateral glutamate levels (EAA release): no effect | EAA (glutamate) release during ischemia (EAA release): reduces EAA release | Nitrotyrosine levels after rMCAo (nitrotyrosine): reduces nitrotyrosine levels | Lipid peroxidation (lipid peroxidation): inhibits lipid peroxidation | VRAC blockade [1]: potently blocks VRACs | nNOS activity (recombinant nNOS): inhibits nNOS
